In publication PMC7071731 (Journal of molecular biology, 2019):
Substitutions are numbered along the chain they refer to. Names may count otherwise.

B1: AcrB-N298A (natural protein)
chain: MPNFFIDRPIFAWVIAIIIMLAGGLAILKLPVAQYPTIAPPAVTISASYPGADAKTVQDTVTQVIEQNMNGIDNLMYMSSNSDSTGTVQITLTFESGTDADIAQVQVQNKLQLAMPLLPQEVQQQGVSVEKSSSSFLMVVGVINTDGTMTQEDISDYVAANMKDAISRTSGVGDVQLFGSQYAMRIWMNPNELNKFQLTPVDVITAIKAQNAQVAAGQLGGTPPVKGQQLNASIIAQTRLTSTEEFGKILLKVNQDGSRVLLRDVAKIELGGENYDIIAEFNGQPASGLGIKLATGAAALDTAAAIRAELAKMEPFFPSGLKIVYPYDTTPFVKISIHEVVKTLVEAIILVFLVMYLFLQNFRATLIPTIAVPVVLLGTFAVLAAFGFSINTLTMFGMVLAIGLLVDDAIVVVENVERVMAEEGLPPKEATRKSMGQIQGALVGIAMVLSAVFVPMAFFGGSTGAIYRQFSITIVSAMALSVLVALILTPALCATMLKPIAKGDHGEGKKGFFGWFNRMFEKSTHHYTDSVGGILRSTGRYLVLYLIIVVGMAYLFVRLPSSFLPDEDQGVFMTMVQLPAGATQERTQKVLNEVTHYYLTKEKNNVESVFAVNGFGFAGRGQNTGIAFVSLKDWADRPGEENKVEAITMRATRAFSQIKDAMVFAFNLPAIVELGTATGFDFELIDQAGLGHEKLTQARNQLLAEAAKHPDMLTSVRPNGLEDTPQFKIDIDQEKAQALGVSINDINTTLGAAWGGSYVNDFIDRGRVKKVYVMSEAKYRMLPDDIGDWYVRAADGQMVPFSAFSSSRWEYGSPRLERYNGLPSMEILGQAAPGKSTGEAMELMEQLASKLPTGVGYDWTGMSYQERLSGNQAPSLYAISLIVVFLCLAALYESWSIPFSVMLVVPLGVIGALLAATFRGLTNDVYFQVGLLTTIGLSAKNAILIVEFAKDLMDKEGKGLIEATLDAVRMRLRPILMTSLAFILGVMPLVISTGAGSGAQNAVGTGVMGGMVTATVLAIFFVPVFFVVVRRRFSRKNEDIEHSHTVDHH
B2: AcrB-I27A (natural protein)
chain: B1 chain with I27A, A298N
B3: AcrB-V340A (natural protein)
chain: B1 chain with A298N, V340A

Legend:
[1] = target: AcrB (Escherichia coli, UniProt P31224); experiment: ITC; type: binding
[2] = target: AcrB (Escherichia coli, UniProt P31224, I27A); experiment: ITC; type: binding
[3] = target: AcrB (Escherichia coli, UniProt P31224, V340A); experiment: ITC; type: binding
[4] = target: AcrB (Escherichia coli, UniProt P31224, N298A); experiment: ITC; type: binding
[5] = target: the molecule itself; experiment: crystal structure

Chain of AcrB (Escherichia coli, UniProt P31224, I27A) (P31224 whole entry I27A): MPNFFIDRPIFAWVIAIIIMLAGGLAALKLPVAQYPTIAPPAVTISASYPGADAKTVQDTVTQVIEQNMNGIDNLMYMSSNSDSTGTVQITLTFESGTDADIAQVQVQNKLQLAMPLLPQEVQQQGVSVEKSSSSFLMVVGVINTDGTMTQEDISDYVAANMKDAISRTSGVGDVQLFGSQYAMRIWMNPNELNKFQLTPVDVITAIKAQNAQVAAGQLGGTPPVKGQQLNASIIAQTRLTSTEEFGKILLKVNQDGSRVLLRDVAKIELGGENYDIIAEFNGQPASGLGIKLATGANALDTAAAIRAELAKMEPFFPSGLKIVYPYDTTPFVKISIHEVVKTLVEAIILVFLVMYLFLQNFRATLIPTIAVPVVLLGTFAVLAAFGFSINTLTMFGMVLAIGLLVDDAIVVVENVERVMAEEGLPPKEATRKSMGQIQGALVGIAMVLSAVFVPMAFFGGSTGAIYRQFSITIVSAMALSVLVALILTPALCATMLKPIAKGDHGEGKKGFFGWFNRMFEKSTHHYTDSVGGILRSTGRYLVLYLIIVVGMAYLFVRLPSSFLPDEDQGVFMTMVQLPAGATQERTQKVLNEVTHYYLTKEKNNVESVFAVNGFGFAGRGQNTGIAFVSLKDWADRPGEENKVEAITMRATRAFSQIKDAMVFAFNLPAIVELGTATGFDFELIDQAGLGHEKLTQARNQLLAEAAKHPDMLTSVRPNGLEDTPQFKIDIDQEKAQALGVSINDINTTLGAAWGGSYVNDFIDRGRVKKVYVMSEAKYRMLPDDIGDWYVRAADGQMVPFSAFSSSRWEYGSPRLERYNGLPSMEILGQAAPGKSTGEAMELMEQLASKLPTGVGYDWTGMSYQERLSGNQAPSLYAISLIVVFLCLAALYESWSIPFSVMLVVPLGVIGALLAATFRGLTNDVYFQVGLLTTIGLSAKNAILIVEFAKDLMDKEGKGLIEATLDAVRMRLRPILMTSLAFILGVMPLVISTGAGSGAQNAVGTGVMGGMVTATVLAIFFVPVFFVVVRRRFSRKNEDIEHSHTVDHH
Chain of AcrB (Escherichia coli, UniProt P31224, V340A) (P31224 whole entry V340A): as the sequence (P31224 whole entry I27A) above, with A27I, V340A counted along it
Chain of AcrB (Escherichia coli, UniProt P31224) (P31224 whole entry): as the sequence (P31224 whole entry I27A) above, with A27I counted along it

Molecule	Kd [1] [µM]	Kd [2] [µM]	Kd [3] [µM]	Kd [4] [µM]	binding result [5]
CC(=O)O[C@H]1C[C@@]2(C)[C@@H](C[C@@H](O)[C@H]3[C@@]4(C)CC[C@@H](O)[C@@H](C)[C@@H]4CC[C@@]32C)/C1=C(\CCC=C(C)C)C(=O)O [FUA, fusidic acid]	528 ± 8.6	405 ± 6.6	826.5 ± 4.8	1120 ± 18.2	–
B1	–	–	–	–	binds
B2	–	–	–	–	binds
B3	–	–	–	–	binds
